Measured values: patent US12018195B2, “Light-selective particles, related methods and related applications” (priority 2014, dated 2024)

System: macrophage cells
Source text: Positive control includes only growth media (FIG. A).
Positive control includes only growth media.

Compound: CC(=O)[O-].CC(=O)[O-].[Zn+2] [Zn acetate]
- cytotoxic effect on macrophage cells: toxic impact
